Assay results as given in patent publication US20100063027A1, “Amine Derivative Having NPY Y5 Receptor Antagonistic Activity” (SHIONOGI & CO., LTD., priority 2006, published 2010).

What was measured:
[1] = target: T1, human NPY Y5 receptor (Homo sapiens, UniProt Q15761); assay: Affinity for NPY Y5 receptor ([125I] peptide YY binding, CHO cell membranes); details: [125I] peptide YY 60 pM, 25° C., 2 hours
T1 construct: expressed in transfected cells; membranes used
T1 sequence (Q15761 1-445): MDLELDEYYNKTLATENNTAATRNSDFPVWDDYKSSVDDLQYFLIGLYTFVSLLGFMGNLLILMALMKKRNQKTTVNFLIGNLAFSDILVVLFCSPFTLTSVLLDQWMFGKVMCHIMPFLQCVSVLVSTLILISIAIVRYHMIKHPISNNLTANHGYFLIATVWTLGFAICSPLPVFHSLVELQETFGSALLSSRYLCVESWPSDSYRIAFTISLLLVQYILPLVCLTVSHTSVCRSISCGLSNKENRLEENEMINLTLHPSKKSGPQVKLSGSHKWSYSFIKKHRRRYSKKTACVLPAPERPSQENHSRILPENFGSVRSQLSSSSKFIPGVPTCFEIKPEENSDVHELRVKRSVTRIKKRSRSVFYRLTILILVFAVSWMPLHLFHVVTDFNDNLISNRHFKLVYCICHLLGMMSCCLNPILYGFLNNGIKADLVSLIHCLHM
Source text: cDNA sequence encoding a human NPY Y5 receptor (WO96/16542) was cloned in a vector (pME18S, Takebe et al. Mol. Cell. Biol. 8, 8957). The obtained expression vector was transfected into CHO cells as a host by using Lipofect AMINE reagent (Trademark, Gico BRL Co., Ltd.) according to the instruction manual. The cells that stably express NPY Y5 receptor were obtained.
The membranes prepared from the CHO cells expressing NPY Y5 receptor, the compound of the present invention and 30,000 cpm [^125I] peptide YY (60 pM of final concentration: Amersham) were incubated in the assay buffer (20 mM HEPES-Hanks buffer containing 0.1% bovine serum albumin, pH 7.4) at 25° C. for 2 hours, and then the membrane was filtered from the mixture through a glassfilter (GF/C) presoaked with 1% polyethyleneimine. After washing with 50 mM Tris-HCl buffer (pH 7.4), radioactivity retained on the filters was quantified with a gamma counter. Nonspecific binding was defined as the amount of radioactivity bound to the membranes after incubation in the presence of 200 nM of peptide YY. The 50% inhibitory concentration of the test compound against the specific peptide YY binding (IC50 value) was calculated (Inui, A. et al. Endocrinology 131, 2090-2096 (1992)).

[2] = Transportability through the blood-brain barrier (brain Kp) in mice; type: in vivo; details: male, Jcl;C57BL/6J, mouse, brain (relative to plasma), intravenous administration, without cyclosporin A, read-out: brain Kp value (KpCont.), blood-brain partition coefficient
Method: (§1) Transportability of the compounds of the present invention through the blood-brain barrier (blood-brain partition coefficient; Kp) in mice (Jcl;C57BL/6J mice, ♂, 7 weeks) was defined from the difference in concentration of the compounds between in plasma and in brain after intravenous administration of the compounds (0.5 mg/2 mIAg). The brain Kp value of Compound (1-72) (KpCont.) was 1.29 showing high transportability through the blood-brain barrier.

[3] = target: T2, P-gp (Mus musculus, UniProt P21447); assay: Potential for drug-drug interactions through P-gp in vivo (Kp with or without cyclosporin A); details: mice, with versus without cyclosporin A (20 mg/kg)
T2 construct: effectively excreted through P-gp from the brain to vessels; from tissue; host or cells: brain / blood-brain barrier of living Jcl;C57BL/6J mice
T2 sequence (P21447 whole entry): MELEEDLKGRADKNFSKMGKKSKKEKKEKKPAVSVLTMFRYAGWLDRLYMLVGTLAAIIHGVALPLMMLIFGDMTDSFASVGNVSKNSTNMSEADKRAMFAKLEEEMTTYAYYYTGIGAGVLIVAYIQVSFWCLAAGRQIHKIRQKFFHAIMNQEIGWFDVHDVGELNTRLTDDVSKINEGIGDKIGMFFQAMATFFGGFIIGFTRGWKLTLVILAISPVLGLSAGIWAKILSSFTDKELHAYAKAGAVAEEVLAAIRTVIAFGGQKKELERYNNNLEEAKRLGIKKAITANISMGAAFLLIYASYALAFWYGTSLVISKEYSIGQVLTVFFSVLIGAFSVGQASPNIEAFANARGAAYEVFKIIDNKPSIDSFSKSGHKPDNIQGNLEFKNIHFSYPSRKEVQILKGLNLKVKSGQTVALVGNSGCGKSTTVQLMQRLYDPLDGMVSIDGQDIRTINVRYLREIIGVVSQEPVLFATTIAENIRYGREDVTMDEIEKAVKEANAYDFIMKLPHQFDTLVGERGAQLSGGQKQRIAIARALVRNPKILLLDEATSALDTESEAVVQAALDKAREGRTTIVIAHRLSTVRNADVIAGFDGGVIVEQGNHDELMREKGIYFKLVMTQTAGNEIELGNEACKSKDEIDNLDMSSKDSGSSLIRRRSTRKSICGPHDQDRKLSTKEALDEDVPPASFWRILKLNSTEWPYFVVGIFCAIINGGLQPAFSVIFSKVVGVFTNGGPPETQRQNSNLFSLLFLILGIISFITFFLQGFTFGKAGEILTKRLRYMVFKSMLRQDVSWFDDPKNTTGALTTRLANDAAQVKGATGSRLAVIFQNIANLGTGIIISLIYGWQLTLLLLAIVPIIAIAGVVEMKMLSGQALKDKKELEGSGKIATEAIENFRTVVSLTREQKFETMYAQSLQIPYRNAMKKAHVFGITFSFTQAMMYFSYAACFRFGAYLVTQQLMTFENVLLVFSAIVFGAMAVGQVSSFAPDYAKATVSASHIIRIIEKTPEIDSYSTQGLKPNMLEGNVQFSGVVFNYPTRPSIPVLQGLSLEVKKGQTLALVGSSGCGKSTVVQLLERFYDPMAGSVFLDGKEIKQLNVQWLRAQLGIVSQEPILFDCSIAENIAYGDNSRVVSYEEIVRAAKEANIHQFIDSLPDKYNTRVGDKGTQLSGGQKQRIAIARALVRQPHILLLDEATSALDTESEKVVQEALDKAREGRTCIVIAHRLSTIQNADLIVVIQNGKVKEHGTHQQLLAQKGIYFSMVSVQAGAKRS
Method: as §1
(§2) To examine the potential for drug-drug interactions through P-gp in vivo, the Kp values of compounds of the present invention with (KpCSA) or without (KpCont.) cyclosporin A (20 mg/kg), a P-gp inhibitor, were calculated. The KpCSA value of Compound (I-72) was 1.14, and the calculated KpCSA/KpCont. ratio was 0.9.
(§3) On the other hand the potential for drug-drug interactions through P-pg of amide compound B which has similar structure of Compound (I-72) was also examined in mice. The KpCont. and KpCSA were 0.04 and 0.84, respectively.

[4] = test system: T3, P-gp; assay: as above; details: male, Jcl;C57BL/6J, mouse, brain (relative to plasma); mice, intravenous administration, with cyclosporin A (20 mg/kg), a P-gp inhibitor; read-out: KpCSA value
T3 construct: effectively excreted through P-gp from the brain to vessels; from tissue; host or cells: brain / blood-brain barrier of living Jcl;C57BL/6J mice
Method: as §1, §2, §3

| SMILES | IC50 [1] [nM] | also measured |
| --- | --- | --- |
| CC(C)(C)S(=O)(=O)NC[C@H]1CC[C@H](Nc2ccc3ccccc3n2)CC1 [Ij-59] | 2.5 | – |
| C[C@@H]1CN(c2ccc(NC[C@H]3CC[C@H](NS(=O)(=O)C(C)(C)C)CC3)cc2)C[C@H](C)O1 [Compound I-72] | – | Kp [2]: 1.29; KpCSA/KpCont. ratio [3]: 0.9; Kp [4]: 1.14; melting point: 147 to 149 °C |
| CCS(=O)(=O)N[C@H]1CC[C@H](CNc2ccc(S(=O)(=O)c3ccc(F)cc3)cc2)CC1 [Ii-34] | 11 | – |
| CC(C)S(=O)(=O)NC[C@H]1CC[C@H](Nc2ccc(OC3CCCC3)nn2)CC1 [Ij-52] | 0.27 | – |
| C[C@@H]1CN(c2ccc(NC(=O)[C@H]3CC[C@H](NS(=O)(=O)C(C)(C)C)CC3)cc2)C[C@H](C)O1 [compound B, reference compound] | – | Kp [2]: 0.04; KpCSA/KpCont. ratio [3]: 20.5; Kp [4]: 0.84 |
| CCS(=O)(=O)N[C@H]1CC[C@H](CNc2cc(-c3ccccc3)on2)CC1 [Ii-44] | 3.4 | – |
| CCCn1c(=O)oc2cc(NC[C@H]3CC[C@H](NS(=O)(=O)CC)CC3)ccc21 [Ii-16] | 2.5 | – |
| CC(C)S(=O)(=O)NC[C@H]1CC[C@H](Nc2ccc(C(F)(F)F)cn2)CC1 [Ij-1] | 0.7 | – |
| CC(C)(C)S(=O)(=O)NC[C@H]1CC[C@H](Nc2nc3ccc(C(F)(F)F)cc3s2)CC1 [Ij-66] | 0.39 | – |
| CC1CC(C)CN(c2cccc(NC[C@H]3CC[C@H](NS(=O)(=O)C(C)(C)C)CC3)c2)C1 (stereo partly drawn) [Ii-1] | 0.1 | – |
